Common to all, as to assay: NCI tumour cell line growth inhibition, 48 h
Experiment [1] has as its system CAKI-1 renal.
Experiment [2] relates to LOX IMVI melanoma.
The subject of experiment [3] is MALME-3M melanoma.
The subject of experiment [4] is OVCAR-5 ovarian.
The test system of experiment [5] is OVCAR-8 ovarian.
For experiment [6], the system named is PC-3 prostate.
The subject of experiment [7] is SF-268 CNS.
The subject of experiment [8] is SNB-19 CNS.
Experiment [9] concerns SNB-75 CNS.
The subject of experiment [10] is UACC-257 melanoma.

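Tested at 5 concentrations; 48 h exposure; 96-well plates; endpoints linearly interpolated, else capped at highest concentration. At the TGI there is no net growth.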

On to `CC(=O)O[C@H]1C(=O)[C@@]2(C)[C@H]([C@H](OC(=O)c3ccccc3)[C@]3(O)C[C@H](OC(=O)[C@H](O)[C@@H](NC(=O)c4ccccc4)c4ccc5ccccc5c4)C(C)=C1C3(C)C)[C@]1(OC(C)=O)CO[C@@H]1C[C@@H]2O`, for which the TGI in [1] is more than 41 µM; in [2] it was 6.59 µM; in experiment [3], 14.7 µM; in experiment [4] it was 2 µM; in experiment [5], 25.8 µM; in experiment [6], more than 50 µM. In addition, the TGI is more than 50 µM in experiment [7], more than 31.8 µM in experiment [8], 2.15 µM in [9] and 8.22 µM in experiment [10].

As for `O=C1c2cc(I)ccc2N2CCN=C2N1Cc1ccccc1`, the TGI in [1], in experiment [2], in experiment [3], in experiment [4], in [5] and in experiment [6] was more than 100 µM throughout. The TGI in [7] was more than 100 µM; in experiment [8], more than 100 µM; in experiment [9] it was 39.7 µM; in experiment [10] it was more than 100 µM.

With `CC(=O)OCC1OC(n2cnc3nc(Br)[nH]c(=O)c32)C(OC(C)=O)C1OC(C)=O` (stereo not given), the TGI in [1], in experiment [2], in [3], in [4], in experiment [5] and in experiment [6] was more than 100 µM throughout. Moreover, the TGI in experiment [7], in experiment [8], in experiment [9] and in experiment [10] was more than 100 µM in each case.

For the molecule `CN(C)Cc1c(O)ccc2c1c1c(n2C)C(=O)c2ccccc2C1=O`, the TGI in experiment [1] is 70.3 µM; in experiment [2], 18.6 µM; in [3] it was 15.5 µM; in experiment [4], 74.4 µM; in experiment [5] it was more than 100 µM; in experiment [6], 32.7 µM. In addition, the TGI is more than 100 µM in experiment [7], more than 100 µM in experiment [8], 51.8 µM in experiment [9] and 23.9 µM in [10].

In the case of `N#Cc1c(N)oc(-c2ccc([N+](=O)[O-])cc2)c1C#N`, the TGI in experiment [1] was 54.7 µM; in experiment [2], more than 100 µM; in experiment [3] it was 95.9 µM; in [4], more than 100 µM; in [5] it was 52.2 µM; in [6] it was 56.9 µM. In addition, the TGI in experiment [7] was 58.9 µM; in [8] it was 91.6 µM; in [9] it was 47.1 µM; in experiment [10], 62 µM.

Consider `COC(=O)CNC(=O)C(Cc1ccccc1)NC(=O)c1ccc(-c2ccc(Cl)cc2Cl)o1` (stereo not given), for which the TGI in experiment [1] was 77.6 µM; in experiment [2], 69 µM; in experiment [3], 87.4 µM; in [4], more than 100 µM; in experiment [5], more than 100 µM; in experiment [6], more than 100 µM. Moreover, the TGI in experiment [7] was 69.8 µM; in experiment [8], more than 100 µM; in experiment [9], more than 100 µM; in experiment [10], 57.5 µM.

Take `COC(=O)Nc1nc2ccc(S(=O)(=O)Nc3ccccn3)cc2[nH]1`: the TGI in [1], in experiment [2], in experiment [3], in [4], in [5] and in experiment [6] was more than 100 µM throughout. The TGI was more than 100 µM in [7], more than 100 µM in experiment [8], 71.1 µM in [9] and 93.5 µM in experiment [10].

Turning to `CC(C)(C)COC(=O)C(C)(C)NC(=O)C(CC(=O)OCc1ccccc1)NC(=O)OCc1ccccc1` (stereo not given), the TGI was more than 100 µM in experiment [1]; more than 100 µM in experiment [2]; 81.3 µM in experiment [3]; 93.5 µM in [4]; more than 100 µM in experiment [5]; more than 100 µM in experiment [6]. For the same molecule, the TGI in experiment [7] is more than 100 µM; in experiment [8] it was 75.7 µM; in experiment [9], more than 100 µM; in experiment [10] it was 82.1 µM.

Regarding `CC(C)(C)NC1=NC(C(F)(F)F)(C(F)(F)F)NC(=O)N1`, the TGI in [1], in experiment [2], in [3], in experiment [4], in experiment [5] and in experiment [6] was more than 100 µM throughout. Moreover, the TGI in experiment [7], in [8], in [9] and in [10] was more than 100 µM each time.

`Cc1cc2cc3cc(C)c(N)cc3nc2cc1N`: the TGI in experiment [1] is 2.64 µM; in experiment [2] it was 2.11 µM; in experiment [3] it was 2.72 µM; in [4] it was 2.65 µM; in experiment [5] it was 2.2 µM; in [6] it was 6.84 µM. For the same molecule, the TGI came out at 2.71 µM in [7], 3.29 µM in experiment [8], 6.9 µM in [9] and 8.57 µM in experiment [10].

On to `C=C(C)[C@@H](O)[C@H](O)C[C@H](C)C1CC[C@]2(C)C1=CC[C@@H]1[C@@]3(C)CC[C@@H](OC(C)=O)C(C)(C)[C@@H]3C[C@@H](OC3OC(COC(C)=O)C(O)C(O)C3O)[C@]12C` (stereo not given in full), for which the TGI in [1] was found to be 11.8 µM; in [2], 3.31 µM; in [3] it was 4.81 µM; in [4] it was 4.43 µM; in [5], 13.8 µM; in experiment [6] it was 6.59 µM. The TGI in experiment [7] amounted to 9.86 µM; in [8] it was 14.7 µM; in experiment [9] it was 8.32 µM; in experiment [10] it was 8.53 µM.

Take `Oc1c(CN2CCCC2)ccc2cccnc12`: the TGI in experiment [1] was 60.8 µM; in experiment [2] it was 60.5 µM; in [3], more than 100 µM; in experiment [4], more than 100 µM; in experiment [5], 32.4 µM; in [6] it was more than 100 µM. Also, the TGI in experiment [7] was more than 100 µM; in experiment [8], more than 31.6 µM; in experiment [9] it was more than 100 µM; in experiment [10], more than 100 µM.

Take `CC(C)C(Nc1ncnc2nc[nH]c12)C(=O)O` (stereo not given): the TGI in experiment [1], in experiment [2], in experiment [3], in [4], in experiment [5] and in experiment [6] was more than 100 µM each time. The TGI in [7], in experiment [8], in experiment [9] and in experiment [10] was more than 100 µM throughout.

Source of the values: PubChem BioAssay (NCI).
